Measurements published in US7947704B2, “2,4,6-phenyl-substituted cyclic ketoenols” (Bayer CropScience AG, priority 2004, dated 2011).

Experiments:
Format in all cases: in vivo
Myzus persicae = assay: Myzus Test (spray treatment); conditions: 500 g/ha; after 5 d
Meloidogyne incognita = assay: Meloidogyne Test (gall formation on lettuce roots); conditions: 20 ppm; after 14 d
Procedure: To produce a suitable preparation of active compound, 1 part by weight of active compound is mixed with the stated amounts of solvent and emulsifier, and the concentrate is diluted with water to the desired concentration.
Containers are filled with sand, solution of active compound, Meloidogyne incognita egg/larvae suspension and lettuce seeds. The lettuce seeds germinate and the plants develop. On the roots, galls are formed.
After the desired period of time, the nematicidal action is determined in % by gall formation. 100% means that no galls were found; 0% means that the number of galls on the treated plants corresponds to that of the untreated control.

Maize [1] = assay: Safener action after seed dressing, herbicide pre-emergence; conditions: seed not safener-dressed
Procedure: Safener Action after Seed Dressing
The number of crop plant seeds needed for each safener application rate was calculated. Based on the weight of 100 seeds, sufficient seeds were weighed into screw top glass bottles approximately twice the volume of the seeds.
The prospective safeners were formulated as wettable powders or water-dispersible granules. These formulations were weighed out so that the required application rates (g of a.i./kg of seed) were obtained. The samples were added to the seeds in the bottles, followed by sufficient water to produce a seed dressing. The bottles were closed and then placed in an overhead shaker (set at medium speed for a period of up to one hour) so that the seeds were evenly coated with the seed dressing. The bottles were opened and the seeds were used in the pre-emergence tests.
Pre-emergence Application of Herbicides
The safener-treated seeds and untreated seeds as controls were sown in a sandy loam soil in round pots having a diameter of 7 to 13 cm and covered with approximately 0.5 to 1 cm of a 1:1 mix of sandy loam soil and sand. The herbicides, as liquid (for example emulsifiable concentrates) or dry (for example wettable powders) formulations, were diluted to the required concentrations using deionized water and applied to the soil surface using a track sprayer calibrated to deliver 300 liters of spray solution per hectare.
The pots were placed under good growing conditions in a greenhouse, and a visual assessment of the herbicidal effects was made 3 to 4 weeks after the application of the herbicide. The assessment was on a percentage basis in comparison to untreated control plants (0%=no damage, 100%=complete kill).
Herbicide application by the pre-emergence method, safener-dressed: […]

Summer barley = assay: Herbicidal action and safener action, post-emergence, container trials with cereal
Procedure: (§1) Herbicidal Action and Safener Action, Pre-emergence or Post-emergence
(§2) Seeds of rhizome pieces of monocotyledonous and dicotyledonous harmful plants and of crop plants are placed into sandy loam in pots made of peat, covered with soil and cultivated in a greenhouse under growth conditions. In the pre-emergence application, safener and herbicide are applied after sowing, the post-emergence treatment is carried out about two to three weeks after sowing, at the three-leaf stage of the test plants. The herbicide/safener active compound combinations according to the invention, formulated as emulsion concentrates, and in parallel experiments the correspondingly formulated individual active compounds are, at various dosages at a water application rate of 300 l/ha (converted), sprayed onto the surface of the soil when applied by the pre-emergence method and onto the green parts of the plants when applied by the post-emergence method. Pre-emergence evaluation is carried out after 2-4 weeks, post-emergence evaluation is carried out after 1-3 weeks. During this time, the test plants are kept in a greenhouse under optimum growth conditions. The effect of the preparation is scored visually in comparison to untreated controls.
(§3) Container trials with cereal in the greenhouse.
(§4) Safener and herbicide were applied successively to the plants by the post-emergence method (application rates: see Tables)

Summer wheat = assay: as above
Procedure: as §1, §2, §3, §4

Winter wheat = assay: as above
Procedure: as §1, §2, §3, §4

Maize [2] = assay: Herbicidal action and safener action, safener and herbicide applied successively pre-emergence
Procedure: as §1, §2
Safener and herbicide applied successively by the pre-emergence method.

Setaria = assay: Herbicidal pre-emergence action; conditions: 320 g of a.i./ha
From the text: (§5) 1. Herbicidal Pre-emergence Action
(§6) Seeds of monocotyledonous and dicotyledonous weed and crop plants are placed into sandy loam in wood fibre pots and covered with soil. The test compounds, formulated in the form of wettable powders (WP), are then, in various dosages as aqueous suspension with a water application rate of 600 l/ha (converted), with 0.2% of wetting agent added, applied to the surface of the covering soil.
(§7) After the treatment, the pots are placed in a greenhouse and kept under good growth conditions for the test plants. The visual assessment of the emergence damage on the test plants is carried out after a trial period of 3 weeks by comparison with untreated controls (herbicidal effect in percent (%): 100% effect=the plants have died, 0% effect=like control plants).

Lolium = assay: Herbicidal pre-emergence action; conditions: 320 g of a.i./ha
From the text: as §5, §6, §7

[3] = herbicide pre-emergence 25 g of a.i./ha
[4] = herbicide pre-emergence 50 g of a.i./ha
[5] = application rate 25 g of a.i./ha
[6] = application rate 50 g of a.i./ha
[7] = application rate 100 g of a.i./ha

## CCOC(=O)OC1=C(c2c(Cl)cc(C)cc2OC)C(=O)OC12CCC(OC)CC2 (mixture of isomers) [Ex. I-2-c-2]
Myzus persicae
  kill rate against Myzus persicae: 100%

## COc1cc(C)cc(Cl)c1C1=C(O)C2(CCC(OC)CC2)NC1=O (single isomer, unassigned) [Ex. I-1-a-3]
Meloidogyne incognita
  kill rate against Meloidogyne: 100%
Myzus persicae
  kill rate against Myzus persicae: 100%

## CCCOc1cc(C)cc(Cl)c1C1=C(O)C2(CCC(OC)CC2)NC1=O (single isomer, unassigned) [Example I-1-a-4]
Maize [1]; [3]
  Maize (%) damage: 10%
Maize [1]; [4]
  Maize (%) damage: 20%
Summer barley; [5]
  Summer barley (%) observed damage: 0%
Summer barley; [6]
  Summer barley (%) observed damage: 10%
Summer barley; [7]
  Summer barley (%) observed damage: 20%
Summer wheat; [5]
  Summer wheat (%) damage: 20%
Summer wheat; [6]
  Summer wheat (%) damage: 45%
Summer wheat; [7]
  Summer wheat (%) damage: 60%
Winter wheat; [5]
  Winter wheat (%) observed damage: 10%
Winter wheat; [6]
  Winter wheat (%) observed damage: 30%
Winter wheat; [7]
  Winter wheat (%) observed damage: 50%
Maize [2]; [5]
  Maize (%) damage: 10%
Maize [2]; [6]
  Maize (%) damage: 20%

## CCOc1cc(C)cc(Cl)c1C1=C(O)C2(CCC(OC)CC2)NC1=O (single isomer, unassigned) [Example I-1-a-5]
Maize [1]; [3]
  Maize (%) damage: 20%
Maize [1]; [4]
  Maize (%) damage: 20%
Summer barley; [5]
  Summer barley (%) observed damage: 10%
Summer barley; [6]
  Summer barley (%) observed damage: 20%
Summer barley; [7]
  Summer barley (%) observed damage: 20%
Summer wheat; [5]
  Summer wheat (%) damage: 20%
Summer wheat; [6]
  Summer wheat (%) damage: 50%
Summer wheat; [7]
  Summer wheat (%) damage: 60%
Winter wheat; [5]
  Winter wheat (%) observed damage: 10%
Winter wheat; [6]
  Winter wheat (%) observed damage: 30%
Winter wheat; [7]
  Winter wheat (%) observed damage: 60%

## COc1cc(C)cc(Cl)c1C1=C(O)C2(CCOCC2)NC1=O [Ex. I-1-a-1]
Meloidogyne incognita
  kill rate against Meloidogyne: 100%

## COc1cc(C)cc(Cl)c1C1=C(O)C(C)(C)NC1=O [Ex. I-1-a-2]
Setaria
  kill rate against Setaria: ≥ 80%
Lolium
  kill rate against Lolium: ≥ 80%

## COc1cc(C)cc(Cl)c1C1=C(O)C2(CCCC2)OC1=O [Ex. I-2-a-1]
Myzus persicae
  kill rate against Myzus persicae: 100%

## COc1cc(C)cc(Cl)c1C1=C(O)C2(CCC(OC)CC2)OC1=O (stereo not drawn) [Ex. I-2-a-2]
Myzus persicae
  kill rate against Myzus persicae: 100%

## COc1cc(C)cc(Cl)c1C1=C(OC(=O)C(C)C)C2(CCCC2)OC1=O [Ex. I-2-b-1]
Myzus persicae
  kill rate against Myzus persicae: 100%

## COc1cc(C)cc(Cl)c1C1=C(OC(=O)C(C)C)C2(CCOCC2)OC1=O [Ex. I-2-b-3]
Myzus persicae
  kill rate against Myzus persicae: 100%

## CCOC(=O)OC1=C(c2c(Cl)cc(C)cc2OC)C(=O)OC12CCCC2 [Ex. I-2-c-1]
Myzus persicae
  kill rate against Myzus persicae: 100%

## CCOC(=O)OC1=C(c2c(Cl)cc(C)cc2OC)C(=O)OC12CCOCC2 [Ex. I-2-c-3]
Myzus persicae
  kill rate against Myzus persicae: 100%

## COc1cc(C)cc(Cl)c1C1=C(OC(=O)C(C)C)C2(CCC(OC)CC2)NC1=O (stereo not drawn) [Example I-1-b-1]
Summer barley; [5]
  Summer barley (%) observed damage: 30%
Summer barley; [6]
  Summer barley (%) observed damage: 40%
Summer barley; [7]
  Summer barley (%) observed damage: 55%

## CCOC(=O)OC1=C(c2c(Cl)cc(C)cc2OC)C(=O)NC12CCC(OC)CC2 (stereo not drawn) [Example I-1-c-1]
Maize [1]; [3]
  Maize (%) damage: 35%
Summer barley; [5]
  Summer barley (%) observed damage: 10%
Summer barley; [6]
  Summer barley (%) observed damage: 30%
Summer barley; [7]
  Summer barley (%) observed damage: 60%
Winter wheat; [5]
  Winter wheat (%) observed damage: 10%
Winter wheat; [6]
  Winter wheat (%) observed damage: 30%
